Reference: patent US9260408B2, “Dihydroquinoline-2-one derivatives” (Hoffmann-La Roche Inc., priority 2011, dated 2016)
Structures can show the parent of a compound that is named as a salt.

Key:
human CYP11B2 = molecular target: T1, human CYP11B2 (Homo sapiens, UniProt P19099); assay: G-402 cellular enzyme assay, human CYP11B2 (aldosterone release, HTRF); format: cell-based; conditions: G-402 cells expressing human CYP11B2; 1 μM Deoxycorticosterone
T1 construct: expressed in transfected cells
T1 sequence (P19099 25-503): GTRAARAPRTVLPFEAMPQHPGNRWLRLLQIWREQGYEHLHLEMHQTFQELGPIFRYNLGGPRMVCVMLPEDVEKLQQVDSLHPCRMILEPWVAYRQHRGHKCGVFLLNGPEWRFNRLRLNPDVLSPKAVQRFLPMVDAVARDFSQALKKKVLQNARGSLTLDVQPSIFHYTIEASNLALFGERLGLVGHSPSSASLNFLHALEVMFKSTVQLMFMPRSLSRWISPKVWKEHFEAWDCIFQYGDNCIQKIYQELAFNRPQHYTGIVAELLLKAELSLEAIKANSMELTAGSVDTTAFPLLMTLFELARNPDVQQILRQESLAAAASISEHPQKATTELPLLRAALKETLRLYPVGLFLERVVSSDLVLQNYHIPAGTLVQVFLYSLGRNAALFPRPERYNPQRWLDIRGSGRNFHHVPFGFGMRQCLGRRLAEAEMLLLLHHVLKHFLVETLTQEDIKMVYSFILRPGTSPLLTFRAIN
In short: (§1)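 EC50 comes from least-squares fitting of a 4-parameter MMF curve to steroid product levels, measured by HTRF as aldosterone for CYP11B2 or cortisol for CYP11B1. Stably transfected G-402 host cells were given substrate (1 μM deoxycorticosterone or deoxycortisol, respectively) with inhibitor for 16 h in medium with 2.5% charcoal-treated FCS.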

human CYP11B1 = molecular target: T2, human CYP11B1 (Homo sapiens, UniProt P15538); assay: G-402 cellular enzyme assay, human CYP11B1 (cortisol release, HTRF); format: cell-based; conditions: G-402 cells expressing human CYP11B1; 1 μM Deoxycortisol
T2 construct: expressed in transfected cells
T2 sequence (P15538 25-503): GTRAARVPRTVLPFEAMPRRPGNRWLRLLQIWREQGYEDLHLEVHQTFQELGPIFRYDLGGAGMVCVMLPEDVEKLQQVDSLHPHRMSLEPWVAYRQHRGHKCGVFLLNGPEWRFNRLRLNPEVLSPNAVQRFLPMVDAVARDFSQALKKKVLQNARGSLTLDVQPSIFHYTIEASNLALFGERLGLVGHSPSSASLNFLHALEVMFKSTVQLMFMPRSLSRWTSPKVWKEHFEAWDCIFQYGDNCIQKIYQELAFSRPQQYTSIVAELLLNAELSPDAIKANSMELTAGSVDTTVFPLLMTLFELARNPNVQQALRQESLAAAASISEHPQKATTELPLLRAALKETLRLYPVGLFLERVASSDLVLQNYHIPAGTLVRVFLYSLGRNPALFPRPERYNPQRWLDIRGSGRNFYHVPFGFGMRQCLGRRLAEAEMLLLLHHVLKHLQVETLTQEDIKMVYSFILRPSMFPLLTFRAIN
In short: as §1

Compound | EC50 (human CYP11B2) | EC50 (human CYP11B1)
CN1C(=O)CCc2cc(-c3cncc(C4(NC(=O)c5ncccc5Cl)CC4)c3)ccc21 [Example 137, 3-Chloro-pyridine-2-carboxylic acid {1-[5-(1-methyl-2-oxo-1,2,3,4-tetrahydro-quinolin-6-yl)-pyridin-3-yl]-cyclopropyl}-amide] | 6 nM | 872 nM
COc1nc(Cl)cnc1C(=O)NCc1cncc(-c2ccc3c(c2)CCC(=O)N3C)c1 [Example 134] | 3 nM | 94 nM
Cc1cccnc1C(=O)NCc1cncc(-c2ccc3c(c2)CCC(=O)N3C)c1 [Example 115, 3-Methyl-pyridine-2-carboxylic acid [5-(1-methyl-2-oxo-1,2,3,4-tetrahydro-quinolin-6-yl)-pyridin-3-ylmethyl]-amide] | 1 nM | 14 nM
CN1C(=O)CCc2cc(-c3cncc(OC4CCNCC4)c3)ccc21 [Example 62, 1-Methyl-6-[5-(piperidin-4-yloxy)-pyridin-3-yl]-3,4-dihydro-1H-quinolin-2-one hydrochloride] | 177 nM | 8540 nM
CN1C(=O)CCc2cc(-c3cccnc3)ncc21 [Example 35, 1-Methyl-6-pyridin-3-yl-3,4-dihydro-1H-[1,7]naphthyridin-2-one] | 325 nM | > 10000 nM
CN1C(=O)CCc2cc(-c3cncc(N4CCC[C@@H]4CO)c3)ccc21 [Example 6, 6-[5-((R)-2-Hydroxymethyl-pyrrolidin-1-yl)-pyridin-3-yl]-1-methyl-3,4-dihydro-1H-quinolin-2-one] | 98 nM | 3340 nM
Cc1cc(C(=O)NCc2cncc(-c3ccc4c(c3)CCC(=O)N4C)c2)c(Cl)nn1 [Example 105] | 86 nM | 2580 nM
CN1C(=O)CCc2cc(-c3cncc(C4(N)COC4)c3)ccc21 [Example 69, 6-[5-(3-Amino-oxetan-3-yl)-pyridin-3-yl]-1-methyl-3,4-dihydro-1H-quinolin-2-one hydrochloride] | 411 nM | 3490 nM
COC(=O)[C@@H]1CCCN1Cc1cncc(-c2ccc3c(c2)CCC(=O)N3C)c1 [Example 22] | 25 nM | 100 nM
CC(C)S(=O)(=O)NCc1cncc(-c2ccc3c(c2)CCC(=O)N3C)c1 [Example 38, Propane-2-sulfonic acid [5-(1-methyl-2-oxo-1,2,3,4-tetrahydro-quinolin-6-yl)-pyridin-3-ylmethyl]-amide] | 81 nM | 1500 nM
CCC(=O)N1CCC[C@H]1COc1cncc(-c2ccc3c(c2)CCC(=O)N3C)c1 [Example 106] | 20 nM | 2680 nM
CN1C(=O)CCc2cc(-c3cncc(OC[C@@H]4CCN4C(=O)C4CC4)c3)ccc21 [Example 91] | 43 nM | 3070 nM
CCC(=O)N1CC[C@@H](Oc2cncc(-c3ccc4c(c3)CCC(=O)N4C)c2)C1 [Example 121] | 19 nM | 1370 nM
CN1C(=O)CCc2cc(-c3cncc(CNC(=O)c4cc(Cl)nnc4Cl)c3)ccc21 [Example 95] | 17 nM | 1780 nM
CN1C(=O)CCc2cc(-c3cncc(CNC(=O)c4ncccc4F)c3)ccc21 [Example 119] | 6 nM | 75 nM
Cc1noc(C)c1C(=O)NC(C)c1cncc(-c2ccc3c(c2)CCC(=O)N3C)c1 (single isomer, unassigned) [Example 135] | 6 nM | 163 nM

Other lines, results leading:

EC50 (human CYP11B2) | EC50 (human CYP11B1) | Compound
33 nM | 1890 nM | CCC(NS(=O)(=O)CC)c1cncc(-c2ccc3c(c2)CCC(=O)N3C)c1 (racemic) [Example 180, (rac)-Ethanesulfonic acid {1-[5-(1-methyl-2-oxo-1,2,3,4-tetrahydro-quinolin-6-yl)-pyridin-3-yl]-propyl}-amide]
463 nM | 3260 nM | CN1C(=O)CCc2cc(-c3cncc(CNS(=O)(=O)c4cn(C)cn4)c3)ccc21 [Example 157, 1-Methyl-1H-imidazole-4-sulfonic acid [5-(1-methyl-2-oxo-1,2,3,4-tetrahydro-quinolin-6-yl)-pyridin-3-ylmethyl]-amide]
1 nM | 236 nM | Cc1noc(C)c1C(=O)NCCOc1cncc(-c2cc3c(cc2F)N(C)C(=O)CC3)c1 [Example 267, 3,5-Dimethyl-isoxazole-4-carboxylic acid {2-[5-(7-fluoro-1-methyl-2-oxo-1,2,3,4-tetrahydro-quinolin-6-yl)-pyridin-3-yloxy]-ethyl}-amide]
62 nM | 1220 nM | CCC(=O)NC(C)c1cncc(-c2ccc3c(c2)CCC(=O)N3C)c1Cl (single isomer, unassigned) [Example 261, N-{(R or S)-1-[4-Chloro-5-(1-methyl-2-oxo-1,2,3,4-tetrahydro-quinolin-6-yl)-pyridin-3-yl]-ethyl}-propionamide]
8 nM | 158 nM | CCOC(=O)N1CC[C@H](Oc2cncc(-c3ccc4c(c3)CCC(=O)N4C)c2)C1 [Example 256, (S)-3-[5-(1-Methyl-2-oxo-1,2,3,4-tetrahydro-quinolin-6-yl)-pyridin-3-yloxy]-pyrrolidine-1-carboxylic acid ethyl ester]
2 nM | 40 nM | CN1C(=O)CCc2cc(-c3cncc(CNC(=O)c4ncccc4Cl)c3Cl)ccc21 [Example 220, 3-Chloro-pyridine-2-carboxylic acid [4-chloro-5-(1-methyl-2-oxo-1,2,3,4-tetrahydro-quinolin-6-yl)-pyridin-3-ylmethyl]-amide]
8 nM | 514 nM | CN(Cc1cncc(-c2ccc3c(c2)CCC(=O)N3C)c1)C(=O)c1ncccc1Cl [Example 196, 3-Chloro-pyridine-2-carboxylic acid methyl-[5-(1-methyl-2-oxo-1,2,3,4-tetrahydro-quinolin-6-yl)-pyridin-3-ylmethyl]-amide]
10 nM | 777 nM | CCS(=O)(=O)NC(C)c1cncc(-c2cc3c(cc2F)N(C)C(=O)CC3)c1 (single isomer, unassigned) [Example 191, Ethanesulfonic acid {(S or R)-1-[5-(7-fluoro-1-methyl-2-oxo-1,2,3,4-tetrahydro-quinolin-6-yl)-pyridin-3-yl]-ethyl}-amide]
4 nM | 157 nM | Cc1c(CNC(=O)c2ncccc2Cl)cncc1-c1cc2c(cc1F)N(C)C(=O)CC2 [Example 227, 3-Chloro-pyridine-2-carboxylic acid [5-(7-fluoro-1-methyl-2-oxo-1,2,3,4-tetrahydro-quinolin-6-yl)-4-methyl-pyridin-3-ylmethyl]-amide]
12 nM | 557 nM | Cc1noc(C)c1C(=O)NCc1cncc(-c2ccc3c(c2)CCC(=O)N3C)c1Cl [Example 219, 3,5-Dimethyl-isoxazole-4-carboxylic acid [4-chloro-5-(1-methyl-2-oxo-1,2,3,4-tetrahydro-quinolin-6-yl)-pyridin-3-ylmethyl]-amide]
18 nM | 455 nM | Cc1noc(C)c1C(=O)NC(C)(C)c1cncc(-c2ccc3c(c2)CCC(=O)N3C)c1 [Example 139]
22 nM | 679 nM | Cc1noc(C)c1C(=O)NC(C)c1cncc(-c2ccc3c(c2)CCC(=O)N3C)c1Cl (single isomer, unassigned) [Example 257, 3,5-Dimethyl-isoxazole-4-carboxylic acid {(R or S)-1-[4-chloro-5-(1-methyl-2-oxo-1,2,3,4-tetrahydro-quinolin-6-yl)-pyridin-3-yl]-ethyl}-amide]
13 nM | 1320 nM | CN1C(=O)CCc2cc(-c3cncc(O[C@H]4CCN(C(=O)c5cnn(C)c5)C4)c3)ccc21 [Example 255, 1-Methyl-6-{5-[(S)-1-(1-methyl-1H-pyrazole-4-carbonyl)-pyrrolidin-3-yloxy]-pyridin-3-yl}-3,4-dihydro-1H-quinolin-2-one]
18 nM | 898 nM | CCS(=O)(=O)N1CCC[C@H]1COc1cncc(-c2ccc3c(c2)CCC(=O)N3C)c1 [Example 167, 6-[5-((S)-1-Ethanesulfonyl-pyrrolidin-2-ylmethoxy)-pyridin-3-yl]-1-methyl-3,4-dihydro-1H-quinolin-2-one]
